Our source for the IC50 and MIC values is ChEMBL document CHEMBL1154109, “In vitro biological activity and structural analysis of 2,4-diamino-5-(2'-arylpropargyl)pyrimidine inhibitors of Candida albicans” (Bioorg Med Chem, 2009).

In test [1] the target is T1, Dihydrofolate reductase (Candida albicans, UniProt P22906).
T1 sequence (P22906 whole entry): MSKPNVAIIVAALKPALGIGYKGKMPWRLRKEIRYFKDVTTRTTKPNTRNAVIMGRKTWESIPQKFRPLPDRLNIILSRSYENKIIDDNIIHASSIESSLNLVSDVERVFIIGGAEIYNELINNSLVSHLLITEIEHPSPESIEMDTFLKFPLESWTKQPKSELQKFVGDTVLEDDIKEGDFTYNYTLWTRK
Description: Inhibition of Candida albicans DHFR expressed in Escherichia coli BL21 (DE3) assessed as rate of NADPH consumption using dihydrofolate as substrate

The test system of test [2] is Candida albicans.
Test [3] in a line: Cytotoxicity against human MCF10A cells after 4 hrs by alamar blue assay. The note with it: MCF-10A. A general note: Alamar Blue is a resazurin reagent that responds to reducing activity.
Test [4] deals with Candida albicans. Description: Antifungal activity against Candida albicans by alamar blue assay.
Test [5] deals with T2, Dihydrofolate reductase (Homo sapiens, UniProt P00374).
T2 sequence (P00374 whole entry): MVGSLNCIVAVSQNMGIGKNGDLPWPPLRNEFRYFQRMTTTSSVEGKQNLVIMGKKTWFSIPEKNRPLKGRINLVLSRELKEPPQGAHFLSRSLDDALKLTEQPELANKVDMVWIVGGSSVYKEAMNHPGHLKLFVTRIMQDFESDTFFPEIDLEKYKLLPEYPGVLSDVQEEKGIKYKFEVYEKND
Description: Inhibition of human DHFR assessed as rate of NADPH consumption using dihydrofolate as substrate

Converted amounts (≈) assume the structure as drawn. The source made the active and inactive calls.

As usually defined, the IC50 is the concentration that gives 50% inhibition. Read a low IC50 as greater potency in that assay. In general, MIC refers to the smallest concentration in the dilution series that meets the test's criterion for growth inhibition. `COc1cc(CC#Cc2cnc(N)nc2N)cc(OC)c1OC` yielded an IC50 on Dihydrofolate reductase [1] of 0.82 µM. Besides, the MIC result in the test with Candida albicans [2] was “inactive”.

Consider `COc1cc(CC#Cc2c(C)nc(N)nc2N)cc(OC)c1OC`, for which, on Dihydrofolate reductase [1], the IC50 turned out to be 0.18 µM. In addition, in the test with Candida albicans [2], the MIC result was “inactive”.

Molecule `COc1cc(-c2ccccc2)cc([C@@H](C)C#Cc2c(C)nc(N)nc2N)c1` registered an IC50 on Dihydrofolate reductase [1] of 0.033 µM.

For the molecule `COc1cc(-c2ccccc2)cc([C@H](C)C#Cc2c(C)nc(N)nc2N)c1`, the concentration for half-maximal inhibition (IC50) on Dihydrofolate reductase [1] came to 0.037 µM.

On Dihydrofolate reductase [1], `CCc1nc(N)nc(N)c1C#CCc1cc(OC)c(OC)c(OC)c1` had an IC50 of 0.018 µM.

As to `COc1ccc(OC)c(CC#Cc2c(C)nc(N)nc2N)c1`, the midpoint of inhibition against Dihydrofolate reductase [1], the IC50, lay at 0.41 µM.

Consider `CCc1nc(N)nc(N)c1C#CCc1cc(OC)ccc1OC`, for which the IC50 was 63 µM in test [3] and 0.1 µM against Dihydrofolate reductase [1].

Consider `CCCc1nc(N)nc(N)c1C#CCc1cc(OC)ccc1OC`, for which the IC50 against Dihydrofolate reductase [1] is 0.045 µM. That is a double-digit nanomolar value.

In turn, `COc1ccc(OC)c(CC#Cc2cnc(N)nc2N)c1` yielded an IC50 on Dihydrofolate reductase [1] of 1.4 µM. Against the preceding molecule, the IC50 is about 31-fold higher.

On to `COc1cc(CC#Cc2c(C)nc(N)nc2N)cc(-c2c(C)cccc2C)c1`, for which, at Dihydrofolate reductase [1], the half-inhibitory concentration (IC50) amounted to 0.055 µM.

On Dihydrofolate reductase [1], `COc1cc(C(C)C#Cc2cnc(N)nc2N)cc(OC)c1OC` (racemic) yielded an IC50 of 0.18 µM. Further, the MIC entry in the test with Candida albicans [2] is “inactive”.

For `COc1cc(C(C#Cc2cnc(N)nc2N)OC)cc(OC)c1OC` (racemic), it took 2.5 µM to reach half-maximal inhibition against Dihydrofolate reductase [1] (IC50). Also, the MIC entry in the test with Candida albicans [2] was “inactive”.

Consider `COc1cc(C(C#Cc2c(C)nc(N)nc2N)OC)cc(OC)c1OC` (racemic), for which inhibition at Dihydrofolate reductase [1] was half-maximal at 0.32 µM (IC50). Moreover, in the test with Candida albicans [2], the MIC result is “inactive”.

For `COc1cc(C(O)C#Cc2c(C)nc(N)nc2N)cc(OC)c1OC` (racemic), the IC50 in test [3] is 1000 µM; against Dihydrofolate reductase [1], 0.98 µM. Moreover, the MIC result with Candida albicans [2] was “inactive”.

`COc1cc(C(C)C#Cc2c(C)nc(N)nc2N)cc(OC)c1OC` (racemic) had an IC50 on Dihydrofolate reductase [1] of 0.11 µM.

`COc1cc(C(O)C#Cc2cnc(N)nc2N)cc(OC)c1OC` (racemic) returned an IC50 against Dihydrofolate reductase [1] of 11.9 µM. Further, the MIC result with Candida albicans [2] is “inactive”.

The molecule `COc1cc(-c2c(C)cccc2C)cc(C(C)C#Cc2c(C)nc(N)nc2N)c1` (racemic) registered an IC50 at Dihydrofolate reductase [1] of 0.045 µM. This lies in the double-digit nanomolar range.

As for `COc1cc(-c2c(C(C)C)cccc2C(C)C)cc(C(C)C#Cc2c(C)nc(N)nc2N)c1` (racemic), on Dihydrofolate reductase [1], the IC50 worked out at 0.038 µM. Further, the MIC entry with Candida albicans [2] was “inactive”.

For `COc1cc(C(C)C#Cc2c(C)nc(N)nc2N)ccc1-c1ccccc1` (racemic), the IC50 in test [3] stood at 80 µM; against Dihydrofolate reductase [1], 0.055 µM.

Regarding `COc1cc(C(C)C#Cc2c(C)nc(N)nc2N)ccc1-c1c(C)cccc1C` (racemic), the IC50 at Dihydrofolate reductase [1] was determined as 0.032 µM. For the same molecule, the MIC result in the test with Candida albicans [2] was “inactive”.

Regarding `COc1cc(C(C)C#Cc2c(C)nc(N)nc2N)ccc1-c1c(C(C)C)cccc1C(C)C` (racemic), half-maximal inhibition on Dihydrofolate reductase [1] (IC50) was put at 0.041 µM. In the test with Candida albicans [2], the MIC result was “inactive”.

Regarding `COc1cc(-c2ccccc2C)cc(C(C)C#Cc2c(C)nc(N)nc2N)c1` (racemic), at Dihydrofolate reductase [1], it took 0.045 µM to reach half-maximal inhibition (IC50).

The molecule `COc1cc(-c2ccccc2)cc(C(C)C#Cc2c(C)nc(N)nc2N)c1` (racemic) registered an MIC in the test on Candida albicans [4] of 90 µg/mL (≈ 251 µM).

In turn, `COc1ccc(-c2cc(OC)cc(C(C)C#Cc3c(C)nc(N)nc3N)c2)cc1` (racemic) returned a half-inhibitory concentration (IC50) against Dihydrofolate reductase [1] of 0.03 µM.

At Dihydrofolate reductase [1], `COc1ccc(OC)c(C(O)C#Cc2c(C)nc(N)nc2N)c1` (racemic) had an IC50 of 0.73 µM.

In the case of `COc1ccc(OC)c(C(C)C#Cc2c(C)nc(N)nc2N)c1` (racemic), the IC50 amounted to 0.048 µM against Dihydrofolate reductase [1] and 0.4 µM against Dihydrofolate reductase [5].

For `CCC(C#Cc1c(C)nc(N)nc1N)c1cc(OC)c(OC)c(OC)c1` (racemic), the IC50 against Dihydrofolate reductase [1] turned out to be 0.045 µM; against Dihydrofolate reductase [5], 0.2 µM.

`COc1cc(-c2ccccc2)cc(C(O)C#Cc2c(C)nc(N)nc2N)c1` (racemic) gave an IC50 at Dihydrofolate reductase [1] of 0.091 µM. Further, in the test on Candida albicans [2], the MIC result is “inactive”.

In the case of `COc1cc(-c2cc(C)cc(C)c2)cc(C(C)C#Cc2c(C)nc(N)nc2N)c1` (racemic), on Dihydrofolate reductase [1], the half-maximal inhibitory concentration (IC50) was found to be 0.017 µM.

On to `CCc1nc(N)nc(N)c1C#CC(C)c1cc(OC)c(OC)c(OC)c1` (racemic), for which the IC50 against Dihydrofolate reductase [1] turned out to be 0.02 µM.

Turning to `COc1cc(-c2ccc(C(C)(C)C)cc2)cc(C(C)C#Cc2c(C)nc(N)nc2N)c1` (racemic), the values for the IC50 (in test [3]; against Dihydrofolate reductase [1]) were 50 µM and 0.034 µM, respectively.

For `COc1cc(C(C#Cc2c(C)nc(N)nc2N)C(C)C)cc(OC)c1OC` (racemic), 0.033 µM corresponded to half-maximal inhibition at Dihydrofolate reductase [1] (IC50).

For the molecule `COc1ccc(OC)c(C(C#Cc2c(C)nc(N)nc2N)OC)c1` (racemic), the IC50 was 0.55 µM on Dihydrofolate reductase [1] and 0.06 µM at Dihydrofolate reductase [5]. Also, the MIC result in the test on Candida albicans [2] was “inactive”.

Consider `COc1cc(-c2ccc(C)cc2)cc(C(C)C#Cc2c(C)nc(N)nc2N)c1` (racemic), for which the IC50 on Dihydrofolate reductase [1] worked out at 0.022 µM. In other words, the double-digit nanomolar range.
